Results: PubChem BioAssay AID264 (DTP/NCI, 2004)
“And” between values parts separate entries of the source, which are not always exact repeats. Equal values may be shown once. Results filed as inconclusive are left out. Numbered stars: 1 amine (or outer) side, 2 acyl side, 3 side chain; on linkers, the order of the positions; unused ones are H or OH. Bridge positions count the residues as written; N and C are the ends. Square brackets hold non-standard residues; d marks the D form. Peptide text beside a SMILES is read from it. I, II: the chains in the order shown. Actinocin(1to9) = Cc1c2oc3c(C)ccc(C(=O)[*:2])c3nc-2c(C(=O)[*:1])c(N)c1=O; NMeV = CN[CH](C(=O)O)C(C)C; Aze = O=C(O)[CH]1CCN1; Sar = CNCC(=O)O

System: nude mice, LX-1 lung xenograft intrarenal, tumor weight T/C
Assay: NCI In Vivo Anticancer Drug Screen. Data for tumor model Human Lung LX-1 Xenograft (intrarenal inoculation) in NU/NU Swiss (nude) mice
Settings: endpoint: mean tumor weight change, higher = larger tumour
How it was run: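 Readout: T/C, i.e. treated-group tumor measurement over vehicle-control measurement. Mice bearing transplantable tumors were dosed with compound or vehicle.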

[1] = dose: 100.0 mg/kg/injection, schedule: Q04DX003 (sc), vehicle: saline
[2] = dose: 200.0 mg/kg/injection, schedule: Q04DX003 (sc), vehicle: saline
[3] = dose: 300.0 mg/kg/injection, schedule: Q04DX003 (sc), vehicle: Klucel (hydroxypropylcellulose) (HPC)
[4] = dose: 600.0 mg/kg/injection, schedule: Q04DX003 (sc), vehicle: Klucel (hydroxypropylcellulose) (HPC)
[5] = dose: 1200.0 mg/kg/injection, schedule: Q04DX003 (sc), vehicle: Klucel (hydroxypropylcellulose) (HPC)
[6] = dose: 12.5 mg/kg/injection, schedule: Q01DX010 (sc), vehicle: Klucel (hydroxypropylcellulose) (HPC)
[7] = dose: 100.0 mg/kg/injection, schedule: Q01DX010 (sc), vehicle: Klucel (hydroxypropylcellulose) (HPC)
[8] = dose: 300.0 mg/kg/injection, schedule: Q04DX003 (sc), vehicle: saline with Tween-80
[9] = dose: 600.0 mg/kg/injection, schedule: Q04DX003 (sc), vehicle: saline with Tween-80
[10] = dose: 1200.0 mg/kg/injection, schedule: Q04DX003 (sc), vehicle: saline with Tween-80
[11] = dose: 2400.0 mg/kg/injection, schedule: Q04DX003 (sc), vehicle: saline with Tween-80
[12] = dose: 6.25 mg/kg/injection, schedule: Q01DX010 (sc), vehicle: Klucel (hydroxypropylcellulose) (HPC)
[13] = dose: 25.0 mg/kg/injection, schedule: Q04DX003 (sc), vehicle: saline with Tween-80
[14] = dose: 50.0 mg/kg/injection, schedule: Q04DX003 (sc), vehicle: saline with Tween-80

C[CH2][Pb]([CH2]C)([CH2]C)[O]C(=O)COc1ccccc1
T/C (dose: 9.0 mg/kg/injection, schedule: Q04DX003 (sc), vehicle: saline with Tween-80): 47 % of control
T/C (dose: 18.0 mg/kg/injection, schedule: Q04DX003 (sc), vehicle: saline with Tween-80): 47 % of control

Nc1ncn(C2OC(CO)C(O)C2O)c(=O)n1 (centres undefined)
T/C (dose: 0.19 mg/kg/injection, schedule: Q01DX010 (sc), vehicle: saline): 164 % of control
T/C (dose: 0.75 mg/kg/injection, schedule: Q01DX010 (sc), vehicle: saline): 40 % of control
T/C (dose: 10.0 mg/kg/injection, schedule: Q04DX003 (sc), vehicle: saline): 101 % of control
T/C (dose: 20.0 mg/kg/injection, schedule: Q04DX003 (sc), vehicle: saline): 52 % of control
T/C [1]: 86 % of control
T/C [2]: 64 % of control
T/C (dose: 200.0 mg/kg/injection, schedule: Q04DX003 (sc), vehicle: suspension in saline): 45 % of control
T/C (dose: 400.0 mg/kg/injection, schedule: Q04DX003 (sc), vehicle: saline): 35 % of control
T/C (dose: 800.0 mg/kg/injection, schedule: Q04DX003 (sc), vehicle: saline): 16 % of control
T/C (dose: 800.0 mg/kg/injection, schedule: Q04DX003 (sc), vehicle: suspension in saline): 19 % of control and 28 % of control
T/C (dose: 1228.8 mg/kg/injection, schedule: Q04DX003 (sc), vehicle: suspension in saline): -72 % of control
T/C (dose: 1600.0 mg/kg/injection, schedule: Q04DX003 (sc), vehicle: suspension in saline): 12 % of control and 14 % of control
T/C (dose: 1920.0 mg/kg/injection, schedule: Q04DX003 (sc), vehicle: suspension in saline): -100 % of control
T/C (dose: 2400.0 mg/kg/injection, schedule: Q04DX003 (sc), vehicle: suspension in saline): -100 % of control

CC(C)(C)C1CCCCC1
T/C [3]: 94 % of control
T/C [4]: 68 % of control
T/C [5]: 59 % of control
T/C (dose: 2400.0 mg/kg/injection, schedule: Q04DX003 (sc), vehicle: Klucel (hydroxypropylcellulose) (HPC)): 46 % of control

CCOC(=O)Nc1cc2c(c(N)n1)N=C(CN(C)c1ccccc1)CN2
T/C [6]: 166 % of control
T/C (dose: 25.0 mg/kg/injection, schedule: Q01DX010 (sc), vehicle: Klucel (hydroxypropylcellulose) (HPC)): 186 % of control
T/C [7]: 103 % of control

CCCCCC#CC1OC12CCCCC2 (centres undefined)
T/C [8]: 97 % of control
T/C [9]: 93 % of control
T/C [10]: 60 % of control
T/C [11]: 79 % of control

CNC(=O)n1c(N)nc(-c2ccccc2)c1-c1ccccc1
T/C (dose: 37.5 mg/kg/injection, schedule: Q04DX003 (sc), vehicle: saline with Tween-80): 114 % of control
T/C (dose: 75.0 mg/kg/injection, schedule: Q04DX003 (sc), vehicle: saline with Tween-80): 122 % of control
T/C (dose: 150.0 mg/kg/injection, schedule: Q04DX003 (sc), vehicle: saline with Tween-80): 57 % of control

O=C(O)C1CC(c2ccccc2)=NN1c1ccccc1 (centres undefined)
T/C (dose: 150.0 mg/kg/injection, schedule: Q04DX003 (sc), vehicle: water): 105 % of control

C=C1CC2(OC1=O)C(=O)N(C)c1ccc(I)cc12 (centres undefined)
T/C (dose: 150.0 mg/kg/injection, schedule: Q04DX003 (sc), vehicle: suspension in saline): 68 % of control
T/C (dose: 300.0 mg/kg/injection, schedule: Q04DX003 (sc), vehicle: suspension in saline): 34 % of control
T/C (dose: 600.0 mg/kg/injection, schedule: Q04DX003 (sc), vehicle: suspension in saline): 34 % of control
T/C (dose: 1200.0 mg/kg/injection, schedule: Q04DX003 (sc), vehicle: suspension in saline): 62 % of control

COc1c(CNC(=O)CCl)cc2[nH]c(C)cc2c1CNC(=O)CCl
T/C [7]: 76 % of control
T/C (dose: 200.0 mg/kg/injection, schedule: Q01DX010 (sc), vehicle: Klucel (hydroxypropylcellulose) (HPC)): 52 % of control
T/C [3]: 91 % of control
T/C (dose: 400.0 mg/kg/injection, schedule: Q01DX010 (sc), vehicle: Klucel (hydroxypropylcellulose) (HPC)): 37 % of control
T/C [4]: 90 % of control
T/C [5]: 68 % of control

C1CC[N-]CC1.C1CC[N-]CC1.C1CC[N-]CC1.[Cl][Rh]([Cl])[Cl]
T/C (dose: 75.0 mg/kg/injection, schedule: Q04DX003 (sc), vehicle: saline): 78 % of control
T/C (dose: 150.0 mg/kg/injection, schedule: Q04DX003 (sc), vehicle: saline): 87 % of control

C/C(=N/NC(N)=S)c1ccc2ccccc2c1
T/C (dose: 12.5 mg/kg/injection, schedule: Q01DX010 (sc), vehicle: saline with Tween-80): 63 % of control
T/C (dose: 25.0 mg/kg/injection, schedule: Q01DX010 (sc), vehicle: saline with Tween-80): 42 % of control
T/C (dose: 200.0 mg/kg/injection, schedule: Q01DX010 (sc), vehicle: saline with Tween-80): 61 % of control
T/C (dose: 400.0 mg/kg/injection, schedule: Q01DX010 (sc), vehicle: saline with Tween-80): 39 % of control

CC1CCC(NC(=O)N(CCCl)N=O)CC1 (centres undefined)
T/C [12]: 34 % of control
T/C [6]: 5 % of control

C[n+]1cccc(NC(=O)c2ccc(NC(=O)C34CCC(C(=O)Nc5ccc(C(=O)Nc6ccc[n+](C)c6)cc5)(CC3)CC4)cc2)c1
T/C (dose: 12.5 mg/kg/injection, schedule: Q04DX003 (sc), vehicle: saline with Tween-80): 103 % of control
T/C [13]: 76 % of control
T/C [14]: 53 % of control

COC(=O)C[C@](O)(CCCC(C)(C)O)C(=O)O[C@@H]1C(OC)=C[C@]23CCCN2CCc2cc4c(cc2[C@H]13)OCO4
T/C (dose: 0.5 mg/kg/injection, schedule: Q01DX010 (sc), vehicle: saline): 115 % of control
T/C (dose: 1.0 mg/kg/injection, schedule: Q01DX010 (sc), vehicle: saline): 61 % of control

Cc1c2ccc3ccccc3c2c[n+]2ccccc12
T/C (dose: 4.69 mg/kg/injection, schedule: Q04DX003 (sc), vehicle: Klucel (hydroxypropylcellulose) (HPC)): 110 % of control
T/C (dose: 9.38 mg/kg/injection, schedule: Q04DX003 (sc), vehicle: Klucel (hydroxypropylcellulose) (HPC)): 87 % of control
T/C (dose: 18.75 mg/kg/injection, schedule: Q04DX003 (sc), vehicle: Klucel (hydroxypropylcellulose) (HPC)): 72 % of control

S=c1nc[nH]c2nc[nH]c12
T/C [12]: 120 % of control
T/C (dose: 50.0 mg/kg/injection, schedule: Q01DX010 (sc), vehicle: Klucel (hydroxypropylcellulose) (HPC)): 51 % of control and 55 % of control

Oc1ccc(O)cc1
T/C (dose: 25.0 mg/kg/injection, schedule: Q04DX003 (sc), vehicle: saline): 102 % of control
T/C (dose: 50.0 mg/kg/injection, schedule: Q04DX003 (sc), vehicle: saline): 85 % of control and 98 % of control
T/C [1]: 92 % of control and 93 % of control
T/C [2]: 109 % of control

O=C(Nc1cccc2c(OC(=O)C(Cl)Cl)c(N=Nc3ccc(S(=O)(=O)Nc4nccs4)cc3)cc(N=Nc3ccc(S(=O)(=O)Nc4nccs4)cc3)c12)C(Cl)Cl (tested in a mixture with another compound)
T/C [13]: 104 % of control
T/C [14]: 92 % of control
T/C (dose: 100.0 mg/kg/injection, schedule: Q04DX003 (sc), vehicle: saline with Tween-80): 116 % of control
T/C [8]: 90 % of control
T/C [9]: 120 % of control
T/C [10]: 83 % of control
T/C [11]: 120 % of control

CCCCCCC(=O)CC(SCC)c1ccccc1Cl (centres undefined)
T/C [8]: 82 % of control
T/C [9]: 96 % of control
T/C [10]: 92 % of control
T/C [11]: 72 % of control

C(CSC1=NCCN1)CSC1=NCCN1
T/C (dose: 50.0 mg/kg/injection, schedule: Q01DX010 (sc), vehicle: saline): 156 % of control
T/C (dose: 100.0 mg/kg/injection, schedule: Q01DX010 (sc), vehicle: saline): 81 % of control

Cc1c2oc3c(C)ccc(C(=O)NC4C(=O)NC(C(C)C)C(=O)N5CCCC5C(=O)N(C)CC(=O)N(C)C(C(C)C)C(=O)OC4C)c3nc-2c(C(=O)NC2C(=O)NC(C(C)C)C(=O)N3CCC3C(=O)N(C)CC(=O)N(C)C(C(C)C)C(=O)OC2C)c(N)c1=O (centres undefined) (I: TV[Aze][Sar][NMeV] / II: TVP[Sar][NMeV]; ester I:1-I:C, II:1-II:C; linker I:N-II:N via Actinocin(1to9); configuration not given here)
T/C (dose: 0.25 mg/kg/injection, schedule: Q04DX003 (sc), vehicle: saline + alcohol): 58 % of control
T/C (dose: 0.5 mg/kg/injection, schedule: Q04DX003 (sc), vehicle: saline + alcohol): 44 % of control
T/C (dose: 1.0 mg/kg/injection, schedule: Q04DX003 (sc), vehicle: saline + alcohol): 29 % of control
